“Also recorded” adds a separate entry of the source. Read-outs that look alike come from different tables or passages of the source. Values belong to the molecule of their own block, whether it stands above or below them. Positions of bridges follow the written chain, without caps; N, C: chain ends. Residues, ends and D or L forms follow the SMILES beside them. *: point of attachment. Ms = CS(=O)(=O)*
What was measured:
chick N-cadherin = target: T1, chick N-cadherin (Gallus gallus, UniProt P10288); test: Neurite outgrowth of rat cerebellar neurons on N-cadherin expressing 3T3 monolayers (Example 15); type: cell-based; conditions: for inhibitory activity on N-cadherin dependent neurite outgrowth, structure/activity statements: Tables 8 and 9; for inhibition at 250 µg/mL: 16-18 hours, read-out: % Inhibition of N-Cadherin Dependent Neurite Outgrowth
T1 construct: expressed in transfected cells; host or cells: 3T3 fibroblasts (monolayer); rat post-natal day 2-3 cerebellar neurons plated on top
T1 sequence (P10288 165-912): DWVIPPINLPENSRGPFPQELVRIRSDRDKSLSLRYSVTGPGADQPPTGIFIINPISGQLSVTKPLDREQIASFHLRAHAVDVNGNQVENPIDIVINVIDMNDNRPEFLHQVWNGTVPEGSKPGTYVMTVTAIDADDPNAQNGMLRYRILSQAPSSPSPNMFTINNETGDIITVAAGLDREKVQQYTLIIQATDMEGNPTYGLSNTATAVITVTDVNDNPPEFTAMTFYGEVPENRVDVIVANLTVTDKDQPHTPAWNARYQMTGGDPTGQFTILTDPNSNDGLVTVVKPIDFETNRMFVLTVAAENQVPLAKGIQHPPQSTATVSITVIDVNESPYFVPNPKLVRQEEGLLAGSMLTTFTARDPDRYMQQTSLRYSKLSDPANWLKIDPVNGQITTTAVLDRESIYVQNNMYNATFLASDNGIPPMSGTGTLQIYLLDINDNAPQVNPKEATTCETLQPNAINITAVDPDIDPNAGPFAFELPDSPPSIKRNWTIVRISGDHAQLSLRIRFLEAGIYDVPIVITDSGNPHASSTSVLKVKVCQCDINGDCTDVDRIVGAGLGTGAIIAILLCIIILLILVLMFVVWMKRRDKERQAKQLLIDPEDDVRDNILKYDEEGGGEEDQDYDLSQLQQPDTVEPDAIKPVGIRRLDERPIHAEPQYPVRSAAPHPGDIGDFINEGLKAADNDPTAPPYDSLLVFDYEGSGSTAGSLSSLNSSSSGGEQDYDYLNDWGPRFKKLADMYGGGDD
Description: (§1) Cell culture and neurite outgrowth assays. Co-cultures of cerebellar neurons on monolayers of control 3T3 cells and monolayers of transfected 3T3 cells that express physiological levels of chick N-cadherin or human L1 were established as previously described (Williams et al., Neuron 13:583-594, 1994). In brief, 80,000 3T3 cells (control and transfected) were plated into individual chambers of an eight-chamber tissue culture slide coated with polylysine and fibronectin and cultured in DMEM/10% FCS. After 24 hours, when confluent monolayers had formed, the medium was removed and 3000 cerebellar neurons isolated from post-natal day 2-3 rats were plated into each well in SATO media (Doherty et al., Nature 343:464-466, 1990) supplemented with 2% FCS. All of the test peptides were added immediately before the neurons as a 2× stock prepared in SATO/2% FCS. The co-cultures were maintained for 16-18 hours, at which time they were fixed and immunostained for GAP-43 which is present only in the neurons and delineates the neuritic processes. The mean length of the longest neurite per cell was measured for 150-200 neurons sampled in replicate cultures as previously described (Williams et al., Neuron 13:583-594, 1994). […] Dose-response curves were evaluated and the EC50 values determined.

N-cadherin = target: T2, N-cadherin (Gallus gallus, UniProt P10288); test: Neurite outgrowth inhibition, rat neurons (Example 21); type: cell-based; conditions: read-out: % Inhibition of neurite outgrowth; 250 μg/mL
T2 construct: expressed in transfected cells; host or cells: 3T3 fibroblasts (monolayer)
T2 sequence (P10288 165-912): T1 sequence (P10288 165-912)

L1 = L1 (Homo sapiens, UniProt P32004); test: Neurite outgrowth of rat cerebellar neurons on L1 expressing 3T3 monolayers (Example 15); type: cell-based; set-up: expressed in transfected cells; rat cerebellar neurons on top; conditions: for inhibition at 125 µg/mL: 125 μg/ml, read-out: % Inhibition of L1 Response; for effect on L1 stimulated neurite outgrowth (in words): concentrations that inhibited the N-cadherin response (100 μg/mL in FIG. 24)
Description: as §1
Other cell adhesion molecules, such as L1, can stimulate neurite outgrowth, and this response shares the same downstream signaling steps as the N-cadherin response. […] As previously reported, L1 stimulated neurite outgrowth from cerebellar neurons.

[1] = tested on: Madin Darby canine kidney (MDCK) cells; type: cell-based; conditions: for EC50, decrease of electrical resistance across MDCK cell monolayer: 18 hours
Description: Yet another assay evaluates the effect of a modulating agent on the electrical resistance across a monolayer of cells. For example, Madin Darby canine kidney (MDCK) cells can be exposed to the modulating agent dissolved in medium (e.g., at a final concentration of 0.5 mg/ml for a period of 24 hours). The effect on electrical resistance can be measured using standard techniques. This assay evaluates the effect of a modulating agent on tight junction formation in epithelial cells. In general, the presence of 500 μg/mL modulating agent should result in a statistically significant decrease in electrical resistance after 24 hours.
Madin Darby canine kidney (MDCK) cells were plated in Millicells (Millipore, Bedford, Mass.), at a density of 300,000 cells per Millicell, and cultured in Dulbecco's Modified Eagle Medium (DMEM; Sigma, St. Louis, Mo.) containing 5% fetal calf serum (Sigma, St. Louis, Mo.) until monolayers formed. Monolayers were exposed to the modulating agent dissolved in medium. The electrical resistance was measured using the EVOM device (World Precision Instruments, Sarasota, Fla.). At the time of measurement, fresh medium, with or without the modulating agent, may be added to the Millicells.

WI-38 = type: cell-based, human; conditions: 3 h
Description: (§2) N—Ac-CHAVC-NH2 (SEQ ID NO:10) and the control peptide N—Ac-CHGVC-NH2 (SEQ ID NO:11) were evaluated for possible cytotoxic effects on human microvascular endothelial (HMVEC; Clonetics), human umbilical vein endothelial (HUVEC; ATCC #CRL-1730), IAFp2 (human fibroblast cell line; Institute Armand-Frapier, Montreal, Quebec), WI-38 (human fibroblast cell line; ATCC #CCL-75), MDA-MB231 (human breast cancer cell line; ATCC #HTB-26), and PC-3 (human prostate cancer cell line; ATCC #CRL-1435) cells utilizing the MTT assay (Plumb et al., Cancer Res. 49:4435-4440, 1989). Neither of the peptides was cytotoxic at concentrations up to and including 100 μM. Similarly, neither of the peptides was capable of inhibiting the proliferation of the above cell lines at concentrations up to 100 μM, as judged by ^3H-thymidine incorporation assays.

PC-3 [2] = type: cell-based, human; conditions: 3 h
Description: as §2

MDA-MB231 [3] = type: cell-based, human; conditions: 3 h
Description: as §2

HMVEC = type: cell-based, human; conditions: 3 h
Description: as §2

HUVEC = type: cell-based, human; conditions: 3 h
Description: as §2

IAFp2 = type: cell-based, human; conditions: 3 h
Description: as §2

PC-3 [4] = test: Cytotoxicity, MTT assay, PC-3; type: cell-based, human
Description: as §2

MDA-MB231 [5] = test: Cytotoxicity, MTT assay, MDA-MB231; type: cell-based, human
Description: as §2

[6] = tested on: Madin Darby canine kidney (MDCK) cells; type: cell-based; conditions: 18 h

L1, sequence (P32004 20-1257): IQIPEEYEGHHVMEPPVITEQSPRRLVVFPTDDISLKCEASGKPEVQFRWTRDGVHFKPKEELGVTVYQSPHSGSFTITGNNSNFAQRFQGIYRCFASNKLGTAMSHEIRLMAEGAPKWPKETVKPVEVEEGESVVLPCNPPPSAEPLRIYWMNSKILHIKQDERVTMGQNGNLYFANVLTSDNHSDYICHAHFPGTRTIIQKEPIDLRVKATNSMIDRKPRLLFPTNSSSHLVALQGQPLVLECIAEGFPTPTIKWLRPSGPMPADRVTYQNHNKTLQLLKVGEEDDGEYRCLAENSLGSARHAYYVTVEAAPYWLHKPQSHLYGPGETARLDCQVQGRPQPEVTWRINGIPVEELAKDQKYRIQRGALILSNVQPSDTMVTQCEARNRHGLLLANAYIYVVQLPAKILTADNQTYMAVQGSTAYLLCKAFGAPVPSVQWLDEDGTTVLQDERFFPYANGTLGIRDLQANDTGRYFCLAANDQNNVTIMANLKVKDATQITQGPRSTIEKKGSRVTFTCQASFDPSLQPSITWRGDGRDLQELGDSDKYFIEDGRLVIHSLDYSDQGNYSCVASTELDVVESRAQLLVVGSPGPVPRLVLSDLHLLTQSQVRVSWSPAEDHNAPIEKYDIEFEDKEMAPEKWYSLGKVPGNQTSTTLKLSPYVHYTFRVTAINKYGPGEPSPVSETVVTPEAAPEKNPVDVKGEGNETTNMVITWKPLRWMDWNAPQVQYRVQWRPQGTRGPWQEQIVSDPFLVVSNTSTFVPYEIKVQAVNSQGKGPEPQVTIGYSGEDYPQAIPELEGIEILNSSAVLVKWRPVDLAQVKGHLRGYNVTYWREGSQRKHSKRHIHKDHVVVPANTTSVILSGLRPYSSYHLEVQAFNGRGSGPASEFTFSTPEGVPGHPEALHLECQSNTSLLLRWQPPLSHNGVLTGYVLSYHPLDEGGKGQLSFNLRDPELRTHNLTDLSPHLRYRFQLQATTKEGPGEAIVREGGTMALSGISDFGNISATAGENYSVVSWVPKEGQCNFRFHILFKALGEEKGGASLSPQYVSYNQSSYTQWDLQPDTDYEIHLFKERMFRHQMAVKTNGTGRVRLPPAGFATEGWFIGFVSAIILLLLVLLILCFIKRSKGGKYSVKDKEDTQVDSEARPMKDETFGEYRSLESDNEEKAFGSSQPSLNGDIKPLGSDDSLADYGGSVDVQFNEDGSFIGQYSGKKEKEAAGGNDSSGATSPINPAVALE

SMILES: CC[C@H](C)[C@@H]1NC(=O)[C@H](CC(=O)O)NC(=O)[C@H](C(C)C)NC(=O)[C@H](C)NC(=O)[C@H](Cc2c[nH]cn2)NC(=O)[C@H](C)NC(=O)[C@@H](N)CSSC[C@@H](C(N)=O)NC1=O (H-CAHAVDIC-NH2; disulfide 1-8)
inhibitory activity on N-cadherin dependent neurite outgrowth, structure/activity statements (chick N-cadherin; listed as H-CAHAVDIC-NH2): total loss of activity
inhibitory activity on N-cadherin dependent neurite outgrowth, structure/activity statements (chick N-cadherin; listed as compound 15): lost activity
IC50 (WI-38): > 100 µM
IC50 (PC-3 [2]): > 100 µM
IC50 (MDA-MB231 [3]): > 100 µM
IC50 (HMVEC): > 100 µM
IC50 (HUVEC): > 100 µM
IC50 (IAFp2): > 100 µM
IC50 (PC-3 [4]): > 100 µM
IC50 (MDA-MB231 [5]): > 100 µM
inhibition at 250 µg/mL (N-cadherin): 0%

SMILES: CC(=O)N[C@H]1CSSC[C@@H](C(N)=O)NC(=O)[C@H](C(C)C)NC(=O)[C@H](C)NC(=O)[C@H](Cc2c[nH]cn2)NC(=O)[C@H](CO)NC(=O)[C@H](Cc2ccccc2)NC1=O [N—Ac—CFSHAVC—NH2] (Ac-CFSHAVC-NH2; disulfide 1-7)
EC50 [6]: 22 µM

SMILES: CC(C)[C@@H]1NC(=O)[C@H](C)NC(=O)[C@H](Cc2c[nH]cn2)NC(=O)[C@@H](NC=O)CSSC[C@@H](C(N)=O)NC1=O [H—C(O)—NH—CHAVC—NH2]
effect on electrical resistance across MDCK cells (in words) [1]: decrease in potency
EC50 [6]: 560 µM

SMILES: CC(=O)N[C@@H](CO)C(=O)N[C@H]1CSSC[C@@H](C(N)=O)NC(=O)[C@H](C(C)C)NC(=O)[C@H](C)NC(=O)[C@H](Cc2c[nH]cn2)NC1=O [N—Ac—S—CHAVC—NH2] (Ac-SCHAVC-NH2; disulfide 2-6)
EC50 [6]: 490 µM

SMILES: CC(C)[C@@H]1NC(=O)[C@H](C)NC(=O)[C@H](Cc2c[nH]cn2)NC(=O)[C@@H](NS(C)(=O)=O)CSSC[C@@H](C(=O)N[C@@H](Cc2ccc(O)cc2)C(N)=O)NC1=O [CH3—SO2—NH—CHAVCY—NH2] (Ms-CHAVCY-NH2; disulfide 1-5)
EC50 [6]: 140 µM

Further lines, with some results ahead:

inhibition of N-cadherin dependent neurite outgrowth (in words) (chick N-cadherin; 250 μg/mL): potent inhibitors of neurite outgrowth
inhibition at 250 µg/mL (N-cadherin): 88%
inhibition at 125 µg/mL (L1): 9.6 ± 3.3%
SMILES: CC(=O)N[C@H]1CSSC[C@@H](C(N)=O)NC(=O)[C@H](CC(=O)O)NC(=O)[C@H](C(C)C)NC(=O)[C@H](C)NC(=O)[C@H](Cc2c[nH]cn2)NC1=O [N—Ac—CHAVDC—NH2] (Ac-CHAVDC-NH2; disulfide 1-6)
inhibitory activity on N-cadherin dependent neurite outgrowth, structure/activity statements (chick N-cadherin): dramatically increased the inhibitory activity
effect on L1 stimulated neurite outgrowth (in words) (L1): did not interfere with the ability of neurons to extend neurites over 3T3 cells expressing L1
effect on electrical resistance across MDCK cells (in words) [1]: complete abrogation of E-cadherin specific activity
EC50, decrease of electrical resistance across MDCK cell monolayer [1]: INACTIVE

inhibition at 125 µg/mL (L1): 1.7 ± 7.3%
SMILES: CC[C@H](C)[C@@H]1NC(=O)[C@H](CC(=O)O)NC(=O)[C@H](C(C)C)NC(=O)[C@H](C)NC(=O)[C@H](Cc2c[nH]cn2)NC(=O)[C@@H](NC(C)=O)CSSC[C@@H](C(N)=O)NC(=O)[C@H](CC(N)=O)NC1=O (Ac-CHAVDINC-NH2; disulfide 1-8)
inhibitory activity on N-cadherin dependent neurite outgrowth, structure/activity statements (chick N-cadherin; listed as N—Ac-CHAVDINC-NH2): only a slight loss in activity; also recorded: potent inhibitors
effect on L1 stimulated neurite outgrowth (in words) (L1; listed as N—Ac-CHAVDINC-NH2): did not interfere with the ability of neurons to extend neurites over 3T3 cells expressing L1
effect on electrical resistance across MDCK cells (in words) [1]: complete abrogation of E-cadherin specific activity
EC50, decrease of electrical resistance across MDCK cell monolayer [1]: INACTIVE

reduction in inhibitory activity on flanking HAV with E-cadherin amino acids (chick N-cadherin; 250 μg/mL (Table 8)): complete
IC50 (PC-3 [2]): > 100 µM
IC50 (MDA-MB231 [3]): > 100 µM
IC50 (HMVEC): > 100 µM
IC50 (IAFp2): > 100 µM
inhibition at 250 µg/mL (N-cadherin): 0%
SMILES: CC(=O)N[C@H]1CSSC[C@@H](C(N)=O)NC(=O)[C@H](C(C)C)NC(=O)[C@H](C)NC(=O)[C@H](Cc2c[nH]cn2)NC(=O)[C@H](CO)NC1=O [N—Ac—CSHAVC—NH2, N-Ac-Cys-Ser-His-Ala-Val-Cys-NH2] (Ac-CSHAVC-NH2; disulfide 1-6)
IC50 (WI-38): > 100 µM
IC50 (HUVEC): > 100 µM
IC50 (PC-3 [4]): > 100 µM
IC50 (MDA-MB231 [5]): > 100 µM
EC50 [6]: 20 µM

inhibition at 250 µg/mL (chick N-cadherin; 250 μg/mL): 23.7 ± 6.6%
SMILES: CC(=O)N[C@H]1CSSC[C@@H](C(=O)N[C@H](C(N)=O)[C@@H](C)O)NC(=O)[C@H](C(C)C)NC(=O)[C@H](C)NC(=O)[C@H](Cc2c[nH]cn2)NC1=O [N—Ac—CHAVCT—NH2] (Ac-CHAVCT-NH2; disulfide 1-5)
EC50 [6]: 480 µM

inhibition at 250 µg/mL (chick N-cadherin; 250 μg/mL): 6.9 ± 5.4%
SMILES: CC(=O)N[C@H]1CSSC[C@@H](C(=O)N[C@@H](CO)C(N)=O)NC(=O)[C@H](C(C)C)NC(=O)[C@H](C)NC(=O)[C@H](Cc2c[nH]cn2)NC1=O [N—Ac—CHAVCS—NH2] (Ac-CHAVCS-NH2; disulfide 1-5)
EC50 [6]: 490 µM

inhibition at 250 µg/mL (chick N-cadherin; 250 μg/mL): 37.8 ± 4%
SMILES: CC(=O)N[C@H]1CSSC[C@@H](C(=O)N[C@@H](CO)C(=O)N[C@@H](CO)C(N)=O)NC(=O)[C@H](C(C)C)NC(=O)[C@H](C)NC(=O)[C@H](Cc2c[nH]cn2)NC1=O [N—Ac—CHAVCSS—NH2] (Ac-CHAVCSS-NH2; disulfide 1-5)
EC50 [6]: 430 µM

inhibition at 250 µg/mL (chick N-cadherin; 250 μg/mL): 3.3 ± 10%
SMILES: CC(=O)N[C@H]1CSSC[C@@H](C(=O)N[C@@H](CC(=O)O)C(N)=O)NC(=O)[C@H](C(C)C)NC(=O)[C@H](C)NC(=O)[C@H](Cc2c[nH]cn2)NC1=O [N—Ac—CHAVCD—NH2] (Ac-CHAVCD-NH2; disulfide 1-5)
EC50 [6]: 470 µM

Reference: patent US20040106545A1, “Compounds and methods for modulating cell adhesion” (priority 1996, published 2004)
